Measurements: patent publication US12054498B2, “Heteroaromatic macrocyclic ether chemotherapeutic agents” (Nuvalent, Inc., priority 2020, dated 2024)

Tests used:
ROS1-wt = molecular target: T1, ROS1-wt (Homo sapiens, UniProt P08922); assay: Biochemical kinase assay, ROS1-wt kinase domain; conditions: apparent inhibitory constant, Morrison equation; ATP 2 mM in substrate solution; read-out: ROS1-wt Ki^app
T1 construct: purchased Carna 08-163
Procedure, shortened: (§1)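 Compounds, as 100-fold DMSO stocks, were dispensed first, then substrate mix was added (ATP 2 mM, AQT0101 26 μM, in 50 mM HEPES pH 7.5/10 mM MgCl2). Reactions ran at 30 °C with fluorescence logged every 2 min over 120 min. Apparent inhibition constants came from fitting rates to Morrison's tight-binding equation.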

[1] = molecular target: T2, Ba/F3 cells EML4-ALK wt (variant 1) (Homo sapiens, UniProt Q9UM73); assay: Ba/F3 cell proliferation assay, EML4-ALK wt (variant 1); assay type: cell-based; conditions: 72 hours, CellTiter-Glo
T2 construct: echinoderm microtubule-associated protein-like 4 (EML4) gene and the ALK tyrosine kinase domain; host or cells: Ba/F3 (RIKEN), retroviral pMSCV-puro; the other entry of the earlier key: EML4 (Q9HC35, Echinoderm microtubule-associated protein-like 4)
Procedure, shortened: (§2)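 Ba/F3 lines stably expressing the fusion (retroviral pMSCV-puro, selected by IL-3 withdrawal plus puromycin 0.8 μg/mL, monoclonal) were seeded at 1,000 cells/well, dosed next day with 3-fold compound dilutions, and incubated 72 hours. CellTiter-Glo luminescence gave percent inhibition; IC50 by four-parameter logistic fit.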

[2] = molecular target: T3, Ba/F3 cells CD74-ROS1 wild-type (wt) (Homo sapiens, UniProt P08922); assay: Ba/F3 cell proliferation assay, CD74-ROS1 wild-type; assay type: cell-based; conditions: 72 hours, CellTiter-Glo
T3 construct: fusion of the C-terminus of ROS1 with the N-terminus of various partner proteins; host or cells: Ba/F3 (RIKEN), retroviral pMSCV-puro; the other entry of the earlier key: CD74 (P04233, HLA class II histocompatibility antigen gamma chain)
Procedure, shortened: (§3)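 First, retrovirally infected Ba/F3 cells were made IL-3-independent and selected with puromycin (0.8 μg/mL). Next, cells were plated and rested one day. Then compounds in 3-fold dilutions were added for 72 hours before CellTiter-Glo readout.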

[3] = system: TPM3-NTRK1-wt IC50 / primary target IC50 (e.g. CD74-ROS1-wt); assay: TRKA selectivity in Ba/F3 cells (TRKA potency divided by primary target potency); assay type: cell-based; conditions: for TPM3-NTRK1-wt/CD74-ROS1-G2032R selectivity ratio: TRKA potency / CD74-ROS1-G2032R potency; for TPM3-NTRK1-wt/CD74-ROS1-wt selectivity ratio: TRKA potency / CD74-ROS1-wt potency; for TPM3-NTRK1-wt/EML4-ALK-L1196M-G1202R selectivity ratio: TRKA potency / EML4-ALK-L1196M-G1202R potency; for TPM3-NTRK1-wt/EML4-ALK-wt selectivity ratio: TRKA potency / EML4-ALK-wt potency
Method: TRKA selectivity was calculated by dividing a compound's TRKA potency by its primary target potency (e.g. TPM3-NTRK1-wt IC50/CD74-ROS1-wt IC50). Compound selectivity can be interpreted by binning ratio values: bin A for very high selectivity, ratio >30-fold; bin B for high selectivity, ratio >10-fold; bin C for moderate selectivity, ratio ≥1; and bin D for low selectivity, ratio <1. […] (nd=not determined).

[4] = molecular target: T4, Ba/F3 cells EML4-ALK L1196M/G1202R (variant 1) (Homo sapiens, UniProt Q9UM73, G1202R/L1196M); assay: Ba/F3 cell proliferation assay, EML4-ALK L1196M/G1202R (variant 1); assay type: cell-based; conditions: 72 hours, CellTiter-Glo
T4 construct: echinoderm microtubule-associated protein-like 4 (EML4) gene and the ALK tyrosine kinase domain; host or cells: Ba/F3 (RIKEN), retroviral pMSCV-puro; the other entry of the earlier key: EML4 (Q9HC35, Echinoderm microtubule-associated protein-like 4)
Procedure, shortened: as §2

ROS1-G2032R = molecular target: T5, ROS1-G2032R (Homo sapiens, UniProt P08922, G2032R); assay: Biochemical kinase assay, ROS1-G2032R kinase domain; conditions: apparent inhibitory constant, Morrison equation; ATP 2 mM in substrate solution; read-out: ROS1-G2032R Ki^app
T5 construct: purchased SignalChem R14-12BG
Procedure, shortened: as §1

ALK-wt = molecular target: T6, ALK-wt (Homo sapiens, UniProt Q9UM73); assay: Biochemical kinase assay, ALK-wt kinase domain; conditions: apparent inhibitory constant, Morrison equation; ATP 2 mM in substrate solution; read-out: ALK-wt Ki^app
T6 construct: purchased Carna 08-518
Procedure, shortened: (§4)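 Apparent Ki values come from fitting initial reaction rates against inhibitor concentration to the Morrison equation. Rates were taken from the linear phase of fluorogenic substrate phosphorylation (AQT0101 for ALK and ROS1, AQT0104 for TRKA; 26 μM in substrate solution with 2 mM ATP), monitored at 485 nm over 120 min at 30° C.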

TRKA-wt = molecular target: T7, TRKA-wt (Homo sapiens, UniProt P04629); assay: Biochemical kinase assay, TRKA-wt kinase domain; conditions: apparent inhibitory constant, Morrison equation; ATP 2 mM in substrate solution; read-out: TRKA-wt Ki^app
T7 construct: or TRKA-wt (1 nM, BPS Bio, 40280) kinase domains in buffer; purchased BPS Bio 40280
Procedure, shortened: as §4

[5] = molecular target: T8, Ba/F3 cells CD74-ROS1 G2032R (Homo sapiens, UniProt P08922, G2032R); assay: Ba/F3 cell proliferation assay, CD74-ROS1 G2032R; assay type: cell-based; conditions: 72 hours, CellTiter-Glo
T8 construct: fusion of the C-terminus of ROS1 with the N-terminus of various partner proteins; host or cells: Ba/F3 (RIKEN), retroviral pMSCV-puro; the other entry of the earlier key: CD74 (P04233, HLA class II histocompatibility antigen gamma chain)
Procedure, shortened: as §3

Ba/F3 cells TPM3-TRKA = molecular target: T9, Ba/F3 cells TPM3-TRKA (Homo sapiens, UniProt P04629); assay: Ba/F3 cell proliferation assay, TPM3-TRKA; assay type: cell-based; conditions: 72 hours, CellTiter-Glo, read-out: TPM3-NTRK1-wt IC50
T9 construct: host or cells: Ba/F3 (RIKEN), retroviral pMSCV-puro; the other entry of the earlier key: TPM3 (P06753, Tropomyosin alpha-3 chain)
Procedure, shortened: as §2

ALK L1196M/G1202R = molecular target: T10, ALK L1196M/G1202R (Homo sapiens, UniProt Q9UM73, G1202R/L1196M); assay: Biochemical kinase assay, ALK L1196M/G1202R kinase domain; conditions: apparent inhibitory constant, Morrison equation; ATP 2 mM in substrate solution; read-out: ALK-L1196M-G1202R Ki^app
T10 construct: purchased SignalChem A19-12NG
Procedure, shortened: as §4

T1 sequence (P08922 1945-2222 limits assumed): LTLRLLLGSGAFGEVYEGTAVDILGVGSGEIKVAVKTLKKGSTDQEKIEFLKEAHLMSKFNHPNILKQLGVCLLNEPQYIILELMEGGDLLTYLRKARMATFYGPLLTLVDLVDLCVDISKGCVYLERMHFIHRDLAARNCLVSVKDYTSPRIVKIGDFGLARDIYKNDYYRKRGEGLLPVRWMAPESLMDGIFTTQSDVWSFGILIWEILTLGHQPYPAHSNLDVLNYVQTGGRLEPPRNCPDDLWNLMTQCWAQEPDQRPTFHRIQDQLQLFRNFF
T3 sequence (P08922 1883-2347 limits assumed): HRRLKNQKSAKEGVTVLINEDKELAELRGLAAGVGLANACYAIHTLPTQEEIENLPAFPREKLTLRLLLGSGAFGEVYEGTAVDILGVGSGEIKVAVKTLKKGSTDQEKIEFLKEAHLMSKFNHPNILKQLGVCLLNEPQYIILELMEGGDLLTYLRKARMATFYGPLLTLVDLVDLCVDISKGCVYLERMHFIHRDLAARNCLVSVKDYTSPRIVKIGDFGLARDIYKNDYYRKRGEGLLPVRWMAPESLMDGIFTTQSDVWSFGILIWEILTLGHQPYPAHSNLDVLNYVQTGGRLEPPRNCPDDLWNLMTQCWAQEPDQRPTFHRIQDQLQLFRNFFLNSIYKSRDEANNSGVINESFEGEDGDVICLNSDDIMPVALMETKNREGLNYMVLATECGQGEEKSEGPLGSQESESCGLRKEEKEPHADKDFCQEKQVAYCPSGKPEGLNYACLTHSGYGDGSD
T8 sequence (P08922 1883-2347 G2032R limits assumed): as the sequence (P08922 1883-2347 limits assumed) above, with G150R counted along it
T10 sequence (Q9UM73 1116-1392 L1196M/G1202R limits assumed): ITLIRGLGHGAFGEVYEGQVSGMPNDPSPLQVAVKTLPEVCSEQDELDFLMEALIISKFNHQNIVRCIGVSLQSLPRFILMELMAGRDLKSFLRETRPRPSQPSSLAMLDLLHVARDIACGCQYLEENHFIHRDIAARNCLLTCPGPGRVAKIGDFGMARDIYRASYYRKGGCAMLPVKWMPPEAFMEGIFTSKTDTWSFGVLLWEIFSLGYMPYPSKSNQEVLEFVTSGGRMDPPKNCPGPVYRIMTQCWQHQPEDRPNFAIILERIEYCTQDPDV
T7 sequence (P04629 510-781 limits assumed): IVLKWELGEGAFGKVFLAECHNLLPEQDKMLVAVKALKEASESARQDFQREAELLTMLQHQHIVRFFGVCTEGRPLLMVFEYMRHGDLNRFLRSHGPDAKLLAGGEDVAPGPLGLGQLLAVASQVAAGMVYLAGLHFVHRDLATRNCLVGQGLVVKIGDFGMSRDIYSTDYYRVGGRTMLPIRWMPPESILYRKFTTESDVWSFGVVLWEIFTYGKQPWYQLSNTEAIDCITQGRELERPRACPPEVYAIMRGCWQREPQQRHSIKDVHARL
T4 sequence (Q9UM73 with tags, fused parts or gaps L1196M/G1202R): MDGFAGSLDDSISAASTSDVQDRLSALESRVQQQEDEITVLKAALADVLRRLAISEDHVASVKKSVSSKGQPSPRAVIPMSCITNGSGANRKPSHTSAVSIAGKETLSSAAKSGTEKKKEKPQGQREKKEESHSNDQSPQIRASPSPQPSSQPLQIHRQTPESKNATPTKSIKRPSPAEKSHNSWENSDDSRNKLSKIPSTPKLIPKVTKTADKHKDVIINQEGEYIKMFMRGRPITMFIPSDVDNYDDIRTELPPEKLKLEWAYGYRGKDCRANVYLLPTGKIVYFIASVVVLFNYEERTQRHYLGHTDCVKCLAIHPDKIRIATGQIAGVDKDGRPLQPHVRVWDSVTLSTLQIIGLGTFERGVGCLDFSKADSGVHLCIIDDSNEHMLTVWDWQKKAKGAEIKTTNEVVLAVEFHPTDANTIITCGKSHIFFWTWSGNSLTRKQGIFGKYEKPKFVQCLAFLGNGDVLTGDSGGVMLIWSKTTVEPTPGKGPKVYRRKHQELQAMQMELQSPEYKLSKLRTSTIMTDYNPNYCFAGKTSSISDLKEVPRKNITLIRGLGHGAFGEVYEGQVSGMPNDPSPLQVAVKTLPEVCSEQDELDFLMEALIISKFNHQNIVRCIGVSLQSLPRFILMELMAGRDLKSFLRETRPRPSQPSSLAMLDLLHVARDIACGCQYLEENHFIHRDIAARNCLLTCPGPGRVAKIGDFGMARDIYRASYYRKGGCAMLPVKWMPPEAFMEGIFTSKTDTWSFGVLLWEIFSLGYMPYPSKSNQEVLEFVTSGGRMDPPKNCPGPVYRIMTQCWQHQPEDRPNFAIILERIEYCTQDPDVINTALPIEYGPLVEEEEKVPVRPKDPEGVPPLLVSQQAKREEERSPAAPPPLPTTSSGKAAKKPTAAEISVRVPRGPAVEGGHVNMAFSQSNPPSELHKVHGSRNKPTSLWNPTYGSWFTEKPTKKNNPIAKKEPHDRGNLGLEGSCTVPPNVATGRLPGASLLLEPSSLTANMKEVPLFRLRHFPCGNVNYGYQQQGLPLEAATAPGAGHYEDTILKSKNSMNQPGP
T2 sequence (Q9UM73 with tags, fused parts or gaps): as the sequence (Q9UM73 with tags, fused parts or gaps L1196M/G1202R) above, with M635L, R641G counted along it
T9 sequence (P04629 510-796 limits assumed): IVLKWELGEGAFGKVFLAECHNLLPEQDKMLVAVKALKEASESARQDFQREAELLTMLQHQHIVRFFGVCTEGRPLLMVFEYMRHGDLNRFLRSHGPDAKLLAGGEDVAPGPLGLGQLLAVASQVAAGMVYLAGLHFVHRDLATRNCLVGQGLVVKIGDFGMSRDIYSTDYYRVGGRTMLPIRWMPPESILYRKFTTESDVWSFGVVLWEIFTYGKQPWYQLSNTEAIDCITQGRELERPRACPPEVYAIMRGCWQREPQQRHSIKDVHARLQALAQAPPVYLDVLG
T5 sequence (P08922 1945-2222 G2032R limits assumed): as the sequence (P08922 1945-2222 limits assumed) above, with G88R counted along it
T6 sequence (Q9UM73 1116-1392 limits assumed): as the sequence (Q9UM73 1116-1392 L1196M/G1202R limits assumed) above, with M81L, R87G counted along it

| Compound | Ki (ROS1-wt) | IC50 [1] | IC50 [2] | IC50 [4] | Ki (ROS1-G2032R) | Ki (ALK-wt) | Ki (TRKA-wt) | IC50 [5] | IC50 (Ba/F3 cells TPM3-TRKA) | Ki (ALK L1196M/G1202R) | TPM3-NTRK1-wt/CD74-ROS1-G2032R selectivity ratio [3] | TPM3-NTRK1-wt/CD74-ROS1-wt selectivity ratio [3] | TPM3-NTRK1-wt/EML4-ALK-L1196M-G1202R selectivity ratio [3] | TPM3-NTRK1-wt/EML4-ALK-wt selectivity ratio [3] |
| --- | --- | --- | --- | --- | --- | --- | --- | --- | --- | --- | --- | --- | --- | --- |
| CCn1nnc2c1-c1cnc(N)c(c1)O[C@H](C)c1cc(F)ccc1-c1cc(Cl)nn1C2 [Example 54, (19R)-10-chloro-3-ethyl-16-fluoro-19-methyl-20-oxa-3,4,5,8,9,23-hexaazapentacyclo[19.3.1.0^2,^6.0^8,^12.0^13,^18]pentacosa-1(24),2(6),4,9,11,13,15,17,21(25),22-decaen-22-amine] | < 50 nM | 0.1 to 50 nM | 0.1 to 50 nM | 50 to 500 nM | < 50 nM | < 50 nM | 50 to 500 nM | 0.1 to 50 nM | 50 to 500 nM | 50 to 500 nM | A (bin A for very high selectivity, ratio >30-fold) | A (bin A for very high selectivity, ratio >30-fold) | D (bin D for low selectivity, ratio <1) | C (bin C for moderate selectivity, ratio ≥1) |
| C[C@H]1Oc2cc(cnc2N)-c2c(cnn2CC(F)F)Cn2nc(Cl)cc2-c2ccc(F)cc21 [Example 55, (19R)-10-chloro-3-(2,2difluoroethyl)-16-fluoro-19-methyl-20-oxa-3,4,8,9,23-pentaazapentacyclo[19.3.1.0^2,^6.0^8,^12.0^13,^18]pentacosa-1(24),2(6),4,9,11,13,15,17,21(25),22-decaen-22-amine] | < 50 nM | 0.1 to 50 nM | 0.1 to 50 nM | 50 to 500 nM | < 50 nM | < 50 nM | > 500 nM | 0.1 to 50 nM | > 500 nM | 50 to 500 nM | A (bin A for very high selectivity, ratio >30-fold) | A (bin A for very high selectivity, ratio >30-fold) | C (bin C for moderate selectivity, ratio ≥1) | A (bin A for very high selectivity, ratio >30-fold) |

Now from value to compound, other results behind:

| Ki (ROS1-wt) | IC50 [1] | IC50 [2] | IC50 [4] | Ki (ROS1-G2032R) | Ki (ALK-wt) | Ki (TRKA-wt) | IC50 [5] | IC50 (Ba/F3 cells TPM3-TRKA) | Ki (ALK L1196M/G1202R) | Compound | TPM3-NTRK1-wt/CD74-ROS1-G2032R selectivity ratio [3] | TPM3-NTRK1-wt/CD74-ROS1-wt selectivity ratio [3] | TPM3-NTRK1-wt/EML4-ALK-L1196M-G1202R selectivity ratio [3] | TPM3-NTRK1-wt/EML4-ALK-wt selectivity ratio [3] |
| --- | --- | --- | --- | --- | --- | --- | --- | --- | --- | --- | --- | --- | --- | --- |
| < 50 nM | 0.1 to 50 nM | 0.1 to 50 nM | 0.1 to 50 nM | < 50 nM | < 50 nM | > 500 nM | 0.1 to 50 nM | > 500 nM | < 50 nM | C[C@H]1Oc2cc(cnc2N)-c2c(nnn2CC2CC2)Cc2nn(C)nc2-c2ccc(F)cc21 [Example 51, (19R)-3-(cyclopropylmethyl)-16-fluoro-10,19-dimethyl-20-oxa-3,4,5,9,10,11,23-heptaazapentacyclo[19.3.1.0^2,^6.0^8,^12.0^13,^18]pentacosa-1(24),2(6),4,8,11,13,15,17,21(25),22-decaen-22-amine] | A (bin A for very high selectivity, ratio >30-fold) | A (bin A for very high selectivity, ratio >30-fold) | A (bin A for very high selectivity, ratio >30-fold) | A (bin A for very high selectivity, ratio >30-fold) |
| < 50 nM | 0.1 to 50 nM | 0.1 to 50 nM | 50 to 500 nM | < 50 nM | < 50 nM | > 500 nM | 0.1 to 50 nM | > 500 nM | < 50 nM | C[C@H]1Oc2cc(cnc2N)-c2c(C3CCC3)noc2Cn2ncnc2-c2ccc(F)cc21 [Example 52, (19R)-3-cyclobutyl-16-fluoro-19-methyl-5,20-dioxa-4,8,9,11,23-pentaazapentacyclo[19.3.1.0^2,^6.0^8,^12.0^13,^18]pentacosa-1(24),2(6),3,9,11,13,15,17,21(25),22-decaen-22-amine] | A (bin A for very high selectivity, ratio >30-fold) | A (bin A for very high selectivity, ratio >30-fold) | C (bin C for moderate selectivity, ratio ≥1) | A (bin A for very high selectivity, ratio >30-fold) |
| < 50 nM | 0.1 to 50 nM | 0.1 to 50 nM | 50 to 500 nM | < 50 nM | < 50 nM | > 500 nM | 0.1 to 50 nM | > 500 nM | < 50 nM | CCn1nnc2c1-c1cnc(N)c(c1)O[C@H](C)c1cc(F)ccc1-c1scnc1C2 [Example 53, (19R)-3-ethyl-16-fluoro-19-methyl-20-oxa-11-thia-3,4,5,9,23-pentaazapentacyclo[19.3.1.0^2,^6.0^8,^12.0^13,^18]pentacosa-1(24),2(6).4,8(12),9,13,15,17,21(25),22-decaen-22-amine] | A (bin A for very high selectivity, ratio >30-fold) | A (bin A for very high selectivity, ratio >30-fold) | C (bin C for moderate selectivity, ratio ≥1) | B (bin B for high selectivity, ratio >10-fold) |
